This note sets out measurements from EPA's ToxValDB 9.5.

Data set [1] concerns Rattus norvegicus.
For data set [2], the system named is Rattus norvegicus. The conditions noted are these: subchronic; duration: 63 days; oral; gavage; M; Sprague-Dawley; Clinical Observation: Piloerection SalivationMatted fur + Body Weight Changes: decrease.
For data set [3], the system named is Rattus norvegicus. As to the kind of experiment: LC0; higher = less toxic. Conditions: acute; Inhalation; Wistar.
Data set [4] deals with Oryctolagus sp. Description: LD0; higher = less toxic. The conditions noted are these: acute; dermal; occlusive; New Zealand.
In data set [5] the test system is Bacteria. The conditions noted are these: In vitro / microbiological growth inhibition; Growth inhibition.
Data set [6] relates to Cavia porcellus. Conditions: chronic; duration: 26 weeks; inhalation; M/F; Guinea Pig; methemoglobin increase, spleen toxicity.
The test system of data set [7] is Mus musculus. Conditions: chronic; duration: 26 weeks; inhalation; M/F; methemoglobin increase, spleen toxicity.
Data set [8] has as its system Rattus norvegicus. This is another data set of the same source.
The test system of data set [9] is Rattus norvegicus. The conditions noted are these: oral, M/F.
The subject of data set [10] is Guinea Pig, Mouse, Rat. Conditions: subchronic; inhalation; intermittent; Spleen: Pathology.
The test system of data set [11] is Cavia porcellus. The conditions noted are these: Guinea Pig.
Data set [12] concerns Mus musculus. The conditions noted are these: for LC50 / LD50: acute.
For data set [13], the system named is Oryctolagus sp.
The subject of data set [14] is Mus musculus. Description: LC100; higher = less toxic. Conditions: acute; inhalation.
Data set [15] concerns Mus musculus. The conditions noted are these: chronic; duration: 2 years; oral; diet; M/F; Tif MAG; Uterine pathology.
Data set [16] has as its system Monkey. Conditions: chronic; oral; F; Cyanomolgus; Altered serum hormones & menstrual cyclicity.
Data set [17] concerns Mammals. Conditions: acute; Inhalation.
In data set [18] the test system is Cavia porcellus. As to the kind of experiment: LD100; higher = less toxic. Conditions: acute; oral; Guinea Pig.
Data set [19] relates to Mammals. As to the kind of experiment: LD100; higher = less toxic. The conditions noted are these: acute; Oral.
Data set [20] concerns Rattus norvegicus. As to the kind of experiment: LD100; higher = less toxic. The conditions noted are these: acute.
The subject of data set [21] is Mus musculus. As to the kind of experiment: LD10; higher = less toxic. Conditions: acute; oral; BALB/cAnCr.
In data set [22] the test system is Mus musculus. Conditions: uterotrophic; duration: 3 days; injection; subcutaneous; Active.
Data set [23] concerns Oryctolagus sp. The conditions noted are these: uterotrophic; injection; subcutaneous; Active.
The subject of data set [24] is Rattus norvegicus. The conditions noted are these: uterotrophic, Active.
Data set [25] has as its system Homo sapiens. Conditions: duration: 10 days, oral, F, Withdrawal bleeding.
The mark [26] stands for this setting: short-term, duration: 4 weeks, inhalation, M, Sprague-Dawley.
Where [27] appears, read: short-term, duration: 4 weeks, inhalation, Sprague-Dawley.
[28] abbreviates: subchronic, duration: 7 weeks, inhalation.
The mark [29] stands for this setting: subchronic, duration: 35 days, inhalation.
The mark [30] stands for this setting: subchronic, duration: 35 days, inhalation, ICR.
Where [31] appears, read: subchronic, duration: 90 days, oral, gavage, Albino- not specified.
[32] abbreviates: subchronic, oral, M/F, reduced body weight.
Where [33] appears, read: developmental, duration: 13 days, oral, gavage, New Zealand.
Setting [34] is: reproduction developmental, duration: 13 days, oral, gavage, F, New Zealand.
[35] abbreviates: developmental, duration: 10 days, oral, gavage, Crj:CD.

Converted amounts (≈) assume the structure as drawn. “And” between values parts separate entries of the source, which are not always exact repeats. Identical values can stand only once.

What is called NOAEL is the highest tested level that showed no adverse finding. As a reminder, the LOAEL is the lowest tested level that showed an adverse finding. With `Nc1ccccc1[N+](=O)[O-]` [2-Nitrobenzenamine], the no observed adverse effect level (NOAEL) in data set [1] (developmental, duration: 6 days, oral, gavage, Sprague-Dawley) is 600 mg/kg-day; in data set [1] (reproduction developmental, duration: 6 days, oral, gavage, F, Sprague-Dawley), 100 mg/kg-day; in data set [1] (setting [26]) it was 9.8 mg/m3; in [1] (setting [27]), 30 mg/m3; in [1] (short-term, duration: 14 days, oral, gavage, Sprague-Dawley) it was no less than 100 mg/kg-day; in data set [2] it was 50 mg/kg-day. Moreover, the LOAEL came out at 93 mg/m3 in data set [1] (setting [26]) and 73 mg/m3 in data set [1] (setting [27]). Also, the LC0 in [3] is greater than 2530 mg/m3. In addition, the LD0 in data set [4] was greater than 7940 mg/kg.
`CC1(C)S[C@@H]2[C@H](NC(=O)[C@H](N)c3ccc(O)cc3)C(=O)N2[C@H]1C(=O)O` [Amoxicillin] came in with an NOAEC in data set [5] of 0.1 µg/mL.
Consider `Nc1ccccc1` [Aniline], for which the NOAEL in data set [1] (short-term, duration: 2 weeks, inhalation) is 38.1 mg/m3; in data set [6], 19 mg/m3; in data set [7], 19 mg/m3; in data set [8] (chronic, duration: 26 weeks, inhalation, M/F, methemoglobin increase, spleen toxicity), 19 mg/m3; in [10] it was 19 mg/m3. Moreover, the LOAEL in data set [8] (short-term, inhalation, M, Mild spleen toxicity 2-Week) came to 64.7 mg/m3; in data set [9] (chronic, duration: 104 weeks, diet, Crl:CD1, Immune, Hematologic), 7 mg/kg-day.
Regarding `CCOCC` [Diethyl ether], the no observed adverse effect level (NOAEL) turned out to be 6.2 mg/L in data set [11] (setting [28]); 3 mg/L in data set [11] (setting [29]); 3 mg/L in data set [12] (setting [30]); 6.2 mg/L in [13] (setting [28]); 6.2 mg/L in [1] (subchronic, duration: 7 weeks, inhalation, Wistar); 30 mg/L in data set [1] (subchronic, duration: 35 days, inhalation, Sprague-Dawley). Also, the no-observed-adverse-effect level (NOAEL) in data set [1] (setting [31]) turned out to be 500 mg/kg-day; in data set [8] (setting [32]), 500 mg/kg-day; in data set [9] (subchronic, duration: 90 days, gavage, Sprague-Dawley, Whole Body Effects), 500 mg/kg-day. For the same molecule, the lowest-observed-adverse-effect level (LOAEL) in [11] (setting [29]) came to 30 mg/L; in data set [12] (setting [30]) it was 30 mg/L; in [1] (setting [31]) it was 2000 mg/kg-day; in [8] (setting [32]), 2000 mg/kg-day. Moreover, the LC50 in data set [12] (inhalation) was 130 µg/mL (≈ 1750 µM); in data set [12] (inhalation, C3H/HeCr) it was 98200 mg/m3 and 94900 mg/m3; in data set [12] (inhalation, C57BL/6), 199000 mg/m3 and 182000 mg/m3; in data set [1] (acute, oral, Sprague-Dawley), 1710 mg/kg. For the same molecule, the LD50 amounted to 2420 mg/kg in data set [12] (injection, Intraperitoneal) and 996 mg/kg in data set [12] (injection, intravenous). In addition, the LC100 in [14] was found to be 128 mg/L.
Consider `O=C(NC(=O)c1c(F)cccc1F)Nc1ccc(Cl)c(Oc2ncc(C(F)(F)F)cc2Cl)c1` [Fluazuron], for which the NOEL in data set [15] came to 4.3 mg/kg-day.
Take `C=C1C[C@H]2[C@@H]3C=C(C)C4=CC(=O)CC[C@]4(C)[C@H]3CC[C@]2(C)[C@@]1(OC(C)=O)C(C)=O` [Melengestrol acetate]: in data set [16], the LOEL came to 0.005 mg/kg-day.
As to `C1COCCN1` [Morpholine], the LD50 in [11] (acute, oral) is 900 mg/kg; in [12] (oral) it was 525 mg/kg; in data set [1] (acute, inhalation), ≥ 7.8 mg/L and ≤ 8.2 mg/L. The same molecule gave an LC50 in data set [17] of 12 µg/mL (≈ 138 µM). Besides, the LD100 in data set [18] worked out at 100 mg/kg; in data set [19] it was 1220 mg/kg; in data set [20] (injection, Intraperitoneal) it was 400 mg/kg; in data set [20] (oral) it was 100 mg/kg.
Turning to `CNC=O` [N-Methylformamide], the LD50 was found to be 2600 mg/kg in data set [12] (oral, BALB/cAnCr) and 4000 mg/kg in data set [1] (acute, oral). The LOAEL came out at 50 mg/kg-day in [13] (setting [33]), 50 mg/kg-day in [13] (setting [34]) and 75 mg/kg-day in data set [1] (setting [35]). In addition, the NOAEL was 10 mg/kg-day in data set [13] (setting [33]); 10 mg/kg-day in data set [13] (setting [34]); 10 mg/kg-day in [1] (setting [35]); 36.2 mg/m3 in data set [1] (reproduction developmental, duration: 10 days, inhalation, F, Crl: CD BR); 0.12 mg/L in data set [1] (short-term, duration: 2 weeks, inhalation, M, Crl:CD(SD)). The molecule also showed an LD10 in data set [21] of 1800 mg/kg.
With `CC(=O)[C@H]1CC[C@H]2[C@@H]3CCC4=CC(=O)CC[C@]4(C)[C@H]3CC[C@]12C` [Progesterone], the LEL was determined as 0.087 mg in data set [22]; 1 mg/day in data set [23]; 0.5 mg/kg-day in data set [24] (duration: 2 days, oral); 50 mg/kg-day in data set [24] (duration: 4 days, injection, intraperitoneal); 10 mg in data set [24] (duration: 14 days, oral). In data set [22], the “LEL (gamma)” value was 30. Moreover, the LOEL in [25] (Clinical) and in [25] (clinical) was 3.3 mg/kg-day in each case.
